Values quoted from earlier work as cited in patent US20070053968A1 (Wyeth, priority 2005, published 2007).

Experiments:
[1] = compared with ODV free base
[2] = compared with ODV free base; remark: listed apart in the source
[3] = oral administration, versus venlafaxine, ODV or other salts of ODV
[4] = biological target: neuronal norepinephrine re-uptake (Homo sapiens, UniProt P23975)
dopamine re-uptake = dopamine re-uptake (Homo sapiens, UniProt Q01959)
[5] = versus venlafaxine
[6] = biological target: H1-histaminergic receptors (Homo sapiens, UniProt P35367)
Chain of H1-histaminergic receptors (P35367 whole entry): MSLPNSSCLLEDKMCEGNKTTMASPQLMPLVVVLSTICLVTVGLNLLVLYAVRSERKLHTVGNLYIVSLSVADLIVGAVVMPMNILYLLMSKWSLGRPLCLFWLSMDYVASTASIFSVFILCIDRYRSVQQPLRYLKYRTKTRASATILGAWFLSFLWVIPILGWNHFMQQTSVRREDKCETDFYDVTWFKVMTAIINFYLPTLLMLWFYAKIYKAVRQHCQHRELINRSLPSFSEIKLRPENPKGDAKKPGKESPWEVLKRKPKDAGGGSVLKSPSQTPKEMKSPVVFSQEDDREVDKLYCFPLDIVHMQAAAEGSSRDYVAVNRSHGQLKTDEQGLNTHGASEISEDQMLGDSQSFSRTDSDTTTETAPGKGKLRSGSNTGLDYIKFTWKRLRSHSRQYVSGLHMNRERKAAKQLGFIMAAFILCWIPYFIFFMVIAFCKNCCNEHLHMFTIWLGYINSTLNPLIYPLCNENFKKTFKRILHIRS

Chain of dopamine re-uptake (Q01959 whole entry): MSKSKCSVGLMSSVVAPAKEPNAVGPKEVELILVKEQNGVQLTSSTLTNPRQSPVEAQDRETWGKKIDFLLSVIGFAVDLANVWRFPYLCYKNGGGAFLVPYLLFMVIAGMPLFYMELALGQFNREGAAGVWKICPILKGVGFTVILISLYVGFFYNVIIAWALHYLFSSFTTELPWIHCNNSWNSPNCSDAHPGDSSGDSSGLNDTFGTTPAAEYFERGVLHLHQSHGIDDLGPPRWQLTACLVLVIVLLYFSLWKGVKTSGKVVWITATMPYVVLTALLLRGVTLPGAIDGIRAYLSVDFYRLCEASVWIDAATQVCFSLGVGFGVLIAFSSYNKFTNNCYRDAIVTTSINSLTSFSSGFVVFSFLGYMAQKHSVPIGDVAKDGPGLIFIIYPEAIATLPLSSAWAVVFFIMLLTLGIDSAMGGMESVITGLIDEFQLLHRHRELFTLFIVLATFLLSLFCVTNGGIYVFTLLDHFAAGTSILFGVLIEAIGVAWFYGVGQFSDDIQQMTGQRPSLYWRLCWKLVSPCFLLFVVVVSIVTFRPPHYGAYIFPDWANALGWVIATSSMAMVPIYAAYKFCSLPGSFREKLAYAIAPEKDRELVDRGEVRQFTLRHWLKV
Chain of neuronal norepinephrine re-uptake (P23975 whole entry): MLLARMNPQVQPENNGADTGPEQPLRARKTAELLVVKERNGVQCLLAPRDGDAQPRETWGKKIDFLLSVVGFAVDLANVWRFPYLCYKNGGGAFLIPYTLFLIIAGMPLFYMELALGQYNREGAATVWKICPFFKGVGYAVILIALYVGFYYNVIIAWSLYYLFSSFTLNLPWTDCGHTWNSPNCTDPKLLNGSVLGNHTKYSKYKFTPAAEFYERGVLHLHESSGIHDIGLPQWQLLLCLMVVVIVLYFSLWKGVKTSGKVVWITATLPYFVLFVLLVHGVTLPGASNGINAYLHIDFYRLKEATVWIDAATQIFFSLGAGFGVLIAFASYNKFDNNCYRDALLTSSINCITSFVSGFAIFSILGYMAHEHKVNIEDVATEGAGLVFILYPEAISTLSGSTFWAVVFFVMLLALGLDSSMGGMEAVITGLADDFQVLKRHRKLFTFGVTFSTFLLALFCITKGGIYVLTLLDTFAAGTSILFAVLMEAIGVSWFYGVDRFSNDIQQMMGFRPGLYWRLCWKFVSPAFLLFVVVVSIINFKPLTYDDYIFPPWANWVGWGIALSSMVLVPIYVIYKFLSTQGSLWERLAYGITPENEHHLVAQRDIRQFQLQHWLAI

CN(C)CC(c1ccc(O)cc1)C1(O)CCCCC1.O=C(O)CCC(=O)O (centres unmarked) [ODV succinate]
bioavailability [1]: improved
permeability [2]: improved
incidence of nausea, vomiting, diarrhea, abdominal pain, headache, vaso-vagal malaise, and/or trismus [3]: lower incidence

COc1ccc(C(CN(C)C)C2(O)CCCCC2)cc1 (racemic) [venlafaxine, (±)-1-[2-(dimethylamino)-1-(4-methoxyphenyl)ethyl]-cyclohexanol]
inhibition of neuronal norepinephrine re-uptake [4]: potent inhibitors
inhibition of dopamine re-uptake (dopamine re-uptake): weak inhibitors
affinity for α1-adrenergic receptors (α1-adrenergic receptors): no significant affinity

CN(C)CC(c1ccc(O)cc1)C1(O)CCCCC1 (centres unmarked) [ODV]
solubility compared with venlafaxine [5]: more soluble
affinity for muscarinic receptors (muscarinic receptors): no significant affinity
inhibition of dopamine re-uptake (dopamine re-uptake): weak inhibitors
affinity for H1-histaminergic receptors [6]: no significant affinity
affinity for α1-adrenergic receptors (α1-adrenergic receptors): no significant affinity
